What was measured:
[1] = for logP: HPLC, C 18 reversed phase, 40° C., 0.1% aqueous formic acid and acetonitrile, gradient 10% to 95% acetonitrile
Protocol: temperature: 40° C.; mobile phases: 0.1% aqueous formic acid and acetonitrile; linear gradient from 10% acetonitrile to 95% acetonitrile;
Calibration was carried out using unbranched alkan-2-ones (comprising 3 to 16 carbon atoms) with known logP values (determination of the logP values by the retention times using linear interpolation between two successive alkanones). lambda-max-values were determined using UV-spectra from 200 nm to 400 nm and the peak values of the chromatographic signals.

[2] = system: Colletotrichum lindemuthianum; experiment: In vitro cell test on Colletotrichum lindemuthianum; type: cell-based; settings: 144 h, 20 ppm of active ingredient, 6 days incubation, spectrometric measurement of mycelium growth, read-out: efficacy (inhibition of fungal growth)
Protocol: (§1) Example C: In Vitro Cell Test on Colletotrichum lindemuthianum Solvent: dimethyl sulfoxide Culture medium: 14.6 g anhydrous D-glucose (VWR), 7.1 g mycological peptone (Oxoid), 1.4 g granulated yeast extract (Merck), QSP 1 liter Inoculum: spore suspension The tested compounds were solubilized in dimethyl sulfoxide and the solution used to prepare the required range of concentrations. […] A spore suspension of Colletotrichum lindemuthianum was prepared and diluted to the desired spore density. Compounds were evaluated for their ability to inhibit spores germination and mycelium growth in liquid culture assay. The compounds were added in the desired concentration to the culture medium with spores. After 6 days incubation, fungi-toxicity of compounds was determined by spectrometric measurement of mycelium growth. Inhibition of fungal growth was determined by comparing the absorbance values in wells containing the compounds with the absorbance in control wells without fungicides.

Alternaria alternate = experiment: In vitro cell test on Alternaria alternate; type: cell-based; settings: 120 h, 20 ppm of active ingredient, 5 days incubation, spectrometric measurement of mycelium growth, read-out: efficacy (inhibition of fungal growth)
Protocol: as §1, with “Example B:” for “Example C:”, “on Alternaria alternate” for “on Colletotrichum lindemuthianum”, “(Merck), […]” for “(Merck), QSP 1 liter”, “of Alternaria alternate” for “of Colletotrichum lindemuthianum”, “inhibit spore” for “inhibit spores”, “After 5” for “After 6”

Pyricularia oryzae = experiment: microbe, parasite or virus in culture; type: cell-based; settings: 120 h, read-out: efficacy (inhibition of fungal growth)

## Cc1cc2ncn(Cc3ccccc3[Si](C)(C)c3ccc(-c4ccccc4)cc3)c2cc1C [I.48]
[1]
  logP: 3.33

## Cc1cc2nc(C)n(Cc3ccccc3[Si](C)(C)c3ccc(-c4ccccc4)cc3)c2cc1C [I.53]
[1]
  logP: 3.29

## Cc1nc2ccccc2n1Cc1ccccc1[Si](C)(C)c1ccc(-c2ccccc2)cc1 [I.46]
[1]
  logP: 3.18

## C[Si](C)(c1ccccc1)c1ccccc1Cn1cnc2ccccc21 [I.01, 1-{2-[dimethyl(phenyl)silyl]benzyl}-1H-benzimidazole]
[2]
  inhibition at 20 ppm: 90 to 100%
Alternaria alternate
  inhibition at 20 ppm: 80 to 89%
Pyricularia oryzae
  inhibition at 20 ppm: 90 to 100%
[1]
  chromatographic logP: 2.57

## C[Si](C)(c1ccc(-c2ccccc2)cc1)c1ccccc1Cn1cnc2ccccc21 [I.40]
[1]
  logP: 3.39
